Experimental data published in patent US8952024B2, “Herbicidal pyrimidone derivatives” (E I du Pont de Nemours and Company, priority 2009, dated 2015).

What was measured:
Type in all cases: in vivo
[1] = system: Surinam grass (Brachiaria decumbens); assay: Test B pre-/postemergence plant response
Outline: (§1)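 Test compounds, formulated in a non-phytotoxic solvent mixture with surfactant, are applied to the soil surface (loam and sand blend) right after seeding, or sprayed over plants at the 1- to 4-leaf stage grown in peat moss/vermiculite medium. After 13 to 15 days under glasshouse conditions, each species is scored visually from 0 (no effect) to 100 (complete control) against controls.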

[2] = system: bermudagrass (Cynodon dactylon); assay: Test B pre-/postemergence plant response
Outline: as §1

[3] = system: downy bromegrass (Bromus tectorum); assay: Test B pre-/postemergence plant response
Outline: as §1

[4] = system: lambsquarters (Chenopodium album); assay: Test B pre-/postemergence plant response
Outline: as §1

[5] = system: pigweed (Amaranthus retroflexus); assay: Test B pre-/postemergence plant response
Outline: as §1

[6] = system: wheat (Triticum aestivum); assay: Test B pre-/postemergence plant response
Outline: as §1

[7] = system: woolly cupgrass (Eriochloa villosa); assay: Test B pre-/postemergence plant response
Outline: as §1

[8] = system: yellow nutsedge (Cyperus esculentus); assay: Test B pre-/postemergence plant response
Outline: as §1

[9] = system: barnyardgrass (Echinochloa crus-galli); assay: Test B flooded paddy test
Outline: (§2)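 Seedlings reaching 2 leaves are flooded 3 cm deep; test material is delivered to that water, which stays at the same depth. Plants remain in a greenhouse 13–15 days and are then scored by eye versus controls from 0 to 100.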

[10] = system: ducksalad (Heteranthera limosa); assay: Test B flooded paddy test
Outline: as §2

[11] = system: rice (Oryza sativa); assay: Test B flooded paddy test
Outline: as §2

[12] = system: umbrella sedge (Cyperus difformis); assay: Test B flooded paddy test
Outline: as §2

[13] = 31 g ai/ha, postemergence, scale 0 to 100, 0 is no effect, 100 is complete control
[14] = 62 g ai/ha, postemergence, 0 is no effect, 100 is complete control, 13 to 15 days
[15] = Postemergence, 125 g ai/ha, visual rating after 13 to 15 days, scale 0 (no effect) to 100 (complete control)
[16] = Postemergence, 250 g ai/ha, scale 0 to 100 (0 no effect, 100 complete control)
[17] = Preemergence, 31 g ai/ha, scale 0 to 100 (0 no effect, 100 complete control)
[18] = Preemergence, 62 g ai/ha, scale 0 to 100 (0 no effect, 100 complete control)
[19] = Preemergence, 125 g ai/ha, scale 0 to 100, 0 no effect, 100 complete control
[20] = Preemergence, 250 g ai/ha, 0 to 100 scale
[21] = 250 g ai/ha, flooded paddy test, visual rating on 0 to 100 scale (0 no effect, 100 complete control) after 13 to 15 days
[22] = Flood (flooded paddy test), 62 g ai/ha, scale of 0 to 100 where 0 is no effect and 100 is complete control, 13 to 15 days

CCCc1ncc(C(=O)C2=C(O)CCCC2=O)c(=O)n1CC1CCCO1 (centres unmarked) [Compound 74]
0: Plant response rating, Surinam Grass [1, 17] | Plant response rating, Bromegrass, Downy [3, 13] | Plant response rating, Bromegrass, Downy [3, 17] | Plant response rating, Bromegrass, Downy [3, 18] | Plant response rating, Bromegrass, Downy [3, 19] | Bromegrass, Downy plant response rating [3, 20] | Plant response rating, Wheat [6, 17] | Plant response rating, Wheat [6, 18] | Plant response rating, Wheat [6, 19] | Wheat plant response rating [6, 20] | Plant response rating, Cupgrass, Woolly [7, 17] | Plant response rating, Cupgrass, Woolly [7, 18] | Plant response rating, Cupgrass, Woolly [7, 19] | Plant response rating, Barnyardgrass [9, 22] | Plant response rating, Flood, Ducksalad [10, 21] | Plant response rating, Ducksalad [10, 22] | Plant response rating, Flood, Rice [11, 21] | Plant response rating, Rice [11, 22]
70: Plant response rating, Nutsedge, Yellow [8, 15] | Plant response rating, Nutsedge, Yellow [8, 16]
20: Plant response rating, Surinam Grass [1, 13] | Plant response rating, Nutsedge, Yellow [8, 13] | Nutsedge, Yellow plant response rating (0 to 100 scale) [8, 14] | Plant response rating, Nutsedge, Yellow [8, 17]
65: Plant response rating, Surinam Grass [1, 15] | Plant response rating, Nutsedge, Yellow [8, 19]
60: Plant response rating, Flood, Sedge, Umbrella [12, 21]
55: Plant response rating, Cupgrass, Woolly [7, 15] | Plant response rating, Nutsedge, Yellow [8, 18]
10: Plant response rating, Cupgrass, Woolly [7, 13] | Cupgrass, Woolly plant response rating (0 to 100 scale) [7, 14]
100: Plant response rating, Bermudagrass [2, 19] | Bermudagrass plant response rating ([2]; Preemergence, 250 g ai/ha, 0 to 100 scale, 0 no effect, 100 complete control) | Lambsquarters plant response rating [4, 20] | Plant response rating, Pigweed [5, 15] | Plant response rating, Pigweed [5, 16] | Plant response rating, Pigweed [5, 19] | Pigweed plant response rating [5, 20]
35: Plant response rating, Bromegrass, Downy [3, 16]
40: Plant response rating, Flood, Barnyardgrass [9, 21]
80: Plant response rating, Surinam Grass [1, 18] | Bermudagrass plant response rating (0 to 100 scale) [2, 14]
98: Plant response rating, Bermudagrass [2, 16] | Plant response rating, Bermudagrass [2, 18] | Plant response rating, Lambsquarters [4, 16] | Plant response rating, Lambsquarters [4, 17] | Plant response rating, Lambsquarters [4, 18] | Plant response rating, Lambsquarters [4, 19] | Pigweed plant response rating (0 to 100 scale) [5, 14] | Plant response rating, Pigweed [5, 17] | Plant response rating, Pigweed [5, 18]
50: Plant response rating, Wheat [6, 16]
30: Plant response rating, Wheat [6, 15] | Plant response rating, Sedge, Umbrella [12, 22]
75: Plant response rating, Surinam Grass [1, 16] | Plant response rating, Bermudagrass [2, 13] | Plant response rating, Cupgrass, Woolly [7, 16]
5: Bromegrass, Downy plant response rating (0 to 100 scale) [3, 14] | Plant response rating, Bromegrass, Downy [3, 15] | Plant response rating, Wheat [6, 13] | Wheat plant response rating (0 to 100 scale) [6, 14] | Cupgrass, Woolly plant response rating [7, 20]
45: Surinam Grass plant response rating (0 to 100 scale) [1, 14]
90: Plant response rating, Pigweed [5, 13] | Nutsedge, Yellow plant response rating [8, 20]
85: Plant response rating, Surinam Grass [1, 19]
95: Surinam Grass plant response rating [1, 20] | Plant response rating, Bermudagrass [2, 15] | Plant response rating, Lambsquarters [4, 13] | Lambsquarters plant response rating (0 to 100 scale) [4, 14] | Plant response rating, Lambsquarters [4, 15]
